According to publication PMC9327644, “Optimized peptide extraction method for analysis of antimicrobial peptide Kn2-7/dKn2-7 stability in human serum by LC–MS” (Future Science OA, 2022):
Square brackets hold non-standard residues; d marks the D form. Peptide text beside a SMILES is read from it.

Assay: Time-course stability in 25% human serum by LC-MS
Assay type: in vitro ADME
Conditions: 25% human serum in RPMI media (165 mM MOPS, pH 7.0), 50 μg/ml peptide, 37°C water bath, precipitation with 1% formic acid in ethanol, LC-MS/MS (MRM), internal standard AMP 1018, mean ± SD, n = 3
Procedure: After parameters were optimized to reduce peptide loss during sample processing, the extent of AMP degradation by proteases in human serum was determined via a time-course experiment. Kn2-7 or dKn2-7 (50 μg/ml final concentration) was mixed with RPMI media alone or RPMI containing 25% human serum and incubated at 37°C in a water bath for up to 24 h. At predetermined time points (t = 0, 0.5, 1, 2, 3, 4 and 24 h), a 200 μl aliquot of each sample was collected and mixed with 400 μl of 1% formic acid in ethanol. Samples were incubated on ice for 15 min and centrifuged at 18,000 g for 10 min. Supernatants were transferred to fresh 500 μl tubes and stored at -20°C.
Samples were diluted eight-times with 3% ACN and 0.1% formic acid in water and spiked with internal standard AMP 1018 [15, 16] at 1 μg/ml immediately before LC–MS analysis. A 10 μl aliquot of each sample was analyzed using an Agilent ZORBAX Eclipse XDB 80Å C18 column (2.1 × 50 mm, 5 μm, Agilent, CA, USA) and a Shimadzu LC-20AD system (Shimadzu Corporation, Kyoto, Japan) coupled with a SCIEX API 4000 triple quadrupole mass spectrometer (AB Sciex, MA, USA). […]
MS was conducted in multiple reaction monitoring and positive electrospray ionization mode. […] AMPs Kn2-7/dKn2-7 and 1018 were quantified with the most abundant multiple reaction monitoring transitions m/z 558.7/120.2 and 385.18/239.1, respectively. […]

CC[C@H](C)[C@H](NC(=O)[C@H](CCCNC(=N)N)NC(=O)[C@H](CCCCN)NC(=O)[C@@H](NC(=O)[C@@H](N)Cc1ccccc1)[C@@H](C)CC)C(=O)N[C@@H](C)C(=O)N[C@@H](CCCNC(=N)N)C(=O)N[C@@H](CC(C)C)C(=O)N[C@@H](CC(C)C)C(=O)N[C@@H](CCCNC(=N)N)C(=O)N[C@@H](CCCCN)C(=O)N[C@H](C(=O)N[C@@H](Cc1ccccc1)C(=O)O)[C@@H](C)CC [Kn2-7] (H-FIKRIARLLRKIF-OH)
peptide remaining at 24 h relative to the starting concentration (amount in 0 h sample): 1.0% ± 0.4%

CC[C@@H](C)[C@@H](NC(=O)[C@H](N)Cc1ccccc1)C(=O)N[C@H](CCCCN)C(=O)N[C@H](CCCNC(=N)N)C(=O)N[C@@H](C(=O)N[C@H](C)C(=O)N[C@H](CCCNC(=N)N)C(=O)N[C@H](CC(C)C)C(=O)N[C@H](CC(C)C)C(=O)N[C@H](CCCNC(=N)N)C(=O)N[C@H](CCCCN)C(=O)N[C@@H](C(=O)N[C@H](Cc1ccccc1)C(=O)O)[C@H](C)CC)[C@H](C)CC [dKn2-7] (H-[dF][dI][dK][dR][dI][dA][dR][dL][dL][dR][dK][dI][dF]-OH)
peptide remaining at 24 h relative to the starting concentration (amount in 0 h sample): 78.5% ± 2.7%
